Laboratory results: PubChem BioAssay (NCI)
“And” between values parts separate entries of the source, which are not always exact repeats. Equal values may be shown once.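 Protocol summary: plate cells (96-well), add compound at 5 concentrations, incubate 48 h, interpolate endpoints linearly. Abbreviation: GI50, concentration required for 50% inhibition of growth. At the TGI there is no net growth.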

Assays:
Assay in all cases: NCI tumour cell line growth inhibition, 48 h
ACHN renal = tested on: ACHN renal
RPMI-8226 leukemia = tested on: RPMI-8226 leukemia
HOP-62 NSCLC = tested on: HOP-62 NSCLC
IGROV1 ovarian = tested on: IGROV1 ovarian
LOX IMVI melanoma = tested on: LOX IMVI melanoma
HS 578T breast = tested on: HS 578T breast
KM12 colon = tested on: KM12 colon
M14 melanoma = tested on: M14 melanoma
HCC-2998 colon = tested on: HCC-2998 colon
PC-3 prostate = tested on: PC-3 prostate

Compound | GI50 (ACHN renal) | TGI (ACHN renal) | GI50 (RPMI-8226 leukemia) | TGI (RPMI-8226 leukemia) | GI50 (HOP-62 NSCLC) | TGI (HOP-62 NSCLC) | GI50 (IGROV1 ovarian) | TGI (IGROV1 ovarian) | GI50 (LOX IMVI melanoma) | TGI (LOX IMVI melanoma) | GI50 (HS 578T breast) | TGI (HS 578T breast) | GI50 (KM12 colon) | TGI (KM12 colon) | GI50 (M14 melanoma) | TGI (M14 melanoma) | GI50 (HCC-2998 colon) | TGI (HCC-2998 colon) | GI50 (PC-3 prostate) | TGI (PC-3 prostate)
CCN=C1C=CC(=C(c2ccc(N(C)C)cc2)c2ccc(N(C)C)cc2)c2ccccc21 | 0.241 µM | 1.1 µM | 0.0165 µM | 0.0555 µM | 0.0825 µM | 0.578 µM | 0.0701 µM | 0.711 µM | 0.0528 µM | 1.01 µM | 0.149 µM | 1.02 µM | 0.0383 µM | 0.18 µM | 0.107 µM | 0.372 µM | 0.137 µM | 0.696 µM | 0.0468 µM | 1.06 µM
CC[C@H](Nc1nc(N)nc(C)c1C#N)c1nc2cccc(CN(C)c3ncc(C(=O)NO)cn3)c2c(=O)n1-c1ccccc1 | 1.26 µM | 3.79 µM | 0.212 µM | > 40.8 µM | 0.804 µM | 4.42 µM | 0.569 µM | 2.28 µM | 0.693 µM | 1.35 µM | 0.474 µM | > 11.1 µM | 1.26 µM | 5.21 µM | 1.08 µM | 7.01 µM | 0.806 µM | 2.32 µM | 1.33 µM | 8.14 µM
COc1cc2c(cc1OC)-c1ccc3cc4c(cc3c1N(CCN1CCCC1)C2)OCO4 | 0.514 µM | 2.43 µM | 0.224 µM | 0.723 µM | 0.376 µM | 1.93 µM | 0.517 µM | 2.37 µM | 0.309 µM | 1.39 µM | 1.53 µM | 14.7 µM | 0.538 µM | 1.99 µM | 0.574 µM | 1.89 µM | 1.09 µM | 2.43 µM | 0.303 µM | 1.85 µM
CCc1ccc(NCc2cc(OC)c(OC)c(OC)c2)cc1 | – | 66.7 µM and 77.4 µM | – | 40.7 µM and 52 µM | – | 52.4 µM and 35.5 µM | 1.32 µM and 0.615 µM | > 66.2 µM | 0.543 µM and 0.149 µM | 25.7 µM and 43.8 µM | – | > 100 µM | – | 20.8 µM and 13.8 µM | 0.261 µM and 0.392 µM | 27.6 µM | – | 11 µM and 12.1 µM | – | 53 µM and 18.7 µM
Cc1cc(N2CCCCC2)nc(N(CCNc2ccnc3cc(Cl)ccc23)Cc2ccco2)n1 | 2.72 µM | 8.06 µM | 2 µM | 4.55 µM | 1.73 µM | 3.73 µM | 1.28 µM | 3.65 µM | 1.66 µM | 3.09 µM | 2.34 µM | 5.52 µM | 2.07 µM | 4.71 µM | 1.82 µM | 3.61 µM | 2.14 µM | 4.48 µM | 1.69 µM | 3.72 µM
Nc1ncnc2sc(=S)c3c(c12)CCC3 | 26.3 µM | > 100 µM | 16.8 µM | 55.3 µM | 46.4 µM | > 100 µM | 50.5 µM | > 100 µM | 31.8 µM | > 100 µM | 34.5 µM | 99.7 µM | 40.7 µM | > 100 µM | 42.7 µM | > 100 µM | 35 µM | > 100 µM | 32.1 µM | > 100 µM
N#CSc1ncnc2nc[nH]c12 | 9.1 µM | > 100 µM | 4.13 µM | > 100 µM | 2.31 µM | > 100 µM | 35.1 µM | > 100 µM | 1.09 µM | > 91.6 µM | 4.79 µM | > 92.6 µM | 3.26 µM | > 48.5 µM | 1.78 µM | > 100 µM | 3.9 µM | > 100 µM | 28.7 µM | > 100 µM
COc1ccc(C(=O)/C=C/c2ccc(Cl)cc2)cc1S(=O)(=O)Nc1c(N)nc(SC)[nH]c1=O | 3.23 µM | 12.1 µM | 2.17 µM | 5.97 µM | 1.81 µM | 3.97 µM | 3.25 µM | 11.9 µM | 1.63 µM | 3.22 µM | 3.56 µM | 24.2 µM | 2.09 µM | 4.51 µM | 2 µM | 4.89 µM | 1.92 µM | 3.53 µM | 2.53 µM | 6.85 µM
Cc1ccc2[nH]c(C(=O)NN3C(=O)CSC34CCCCC4C)c(-c3ccccc3)c2c1 (stereo unspecified) | 17.3 µM | 33.3 µM | 13.8 µM | 35.2 µM | 18 µM | 33.9 µM | – | – | 18.9 µM | 35.6 µM | 27.8 µM | 96.2 µM | 14.9 µM | 34.7 µM | 19.5 µM | 37.7 µM | 16.4 µM | 31.6 µM | 12.5 µM | 30.1 µM
CC[C@](C)(O)C(=O)O[C@H]1C(=O)O[C@@H]2C[C@H]3C(C)=CC(=O)[C@@H](O)[C@]3(C)[C@H]3[C@@]4(O)OC[C@]32[C@@H]1[C@@H](C)[C@H]4O | – | 1.69 µM | 0.0928 µM | – | 0.165 µM | 1.19 µM and 0.368 µM | 0.0736 µM | 0.544 µM and 0.274 µM | 0.0563 µM | 0.278 µM and 0.545 µM | – | 4.44 µM | 0.233 µM | 3.62 µM and 0.404 µM | – | 0.396 µM | 0.12 µM | 0.469 µM and 0.316 µM | – | 44.5 µM
CCOC(=O)Cc1c[nH]c(=S)[nH]c1=O | > 100 µM | > 100 µM | > 100 µM | > 100 µM | > 100 µM | > 100 µM | > 100 µM | > 100 µM | > 100 µM | > 100 µM | > 100 µM | > 100 µM | > 100 µM | > 100 µM | > 100 µM | > 100 µM | > 100 µM | > 100 µM | > 100 µM | > 100 µM
C=CCC(N[C@H](CO)C(C)C)c1cn(C(=O)OCC)c2ccccc12 (stereo partly specified) | 32.1 µM | > 100 µM | 13.3 µM | 40.7 µM | 28.6 µM | 89.1 µM | 7.81 µM | 57.1 µM | 19.4 µM | 49.5 µM | 22.7 µM | > 100 µM | 21.7 µM | 59.7 µM | 21.3 µM | 46 µM | 17 µM | 33.6 µM | 15.9 µM | 43.9 µM
OCC1OC(n2ccc3c2ncn2ncnc32)C(O)C1O (stereo unspecified) | 0.719 µM | > 100 µM | 6.62 µM | > 100 µM | 0.595 µM | 33.1 µM | 3.73 µM | > 47.4 µM | 0.29 µM | 1.76 µM | 6.46 µM | 85.9 µM | 2.42 µM | > 100 µM | 5.65 µM | > 100 µM | 3.09 µM | > 100 µM | 0.459 µM | 22.8 µM
